Assay [1] deals with H3K27me3 in Hela cells. The assay can be described thus: H3K27me3 Alpha Hela Assay (AlphaLISA). Format: cell-based. To be noted: Homo sapiens, HeLa, 72 h. On the procedure: H3K27me3 Alpha Hela Assay (AlphaLISA). Ten different doses of each test compound (in a series of 3-fold dilutions) were plated in duplicate 384-well tissue culture treated plates (Catalog #6007680; Perkin Elmer, Waltham, Mass.). Hela cells grown in culture were trypsinized and counted using a Countess® cell counter (Catalog #C10281; Life Technologies, Grand Island, N.Y.). Cell were diluted to 67,000 cells per mL in10% DMEM (Catalog #10569-010 Life Technologies, Grand Island, N.Y.) and 15 μL (1,000 cells) were plated into each well using the Biotek MicroFlo™ Select Dispenser (BioTek Instruments, Inc. Vermont, USA),) of the 384-well plate. Plates were incubated at 37° C./5% CO2 for 72 hrs. One of the duplicate plates was processed for HeLa assay and the other for viability. 5 μL of Cell-Histone Lysis buffer (1×) (Catalog #AL009F1 Perkin Elmer; Waltham, Mass.) per well was added to the plate processed for AlphaLISA and the plate was incubated at RT for 30 minutes on a plate shaker with low speed (Model# 4625-Q Thermo Scientific; Waltham, Mass.). Then, 10 μL per well Histone Extraction buffer (catalog #AL009F2; Perkin Elmer; Waltham, Mass.) was added and the plate further incubated at RT for 20 min on plate shaker with low speed. Next, 10 μL of 5× mix of anti-K27me3 acceptor beads plus Biotinylated anti-Histone H3 (C-ter) Antibody (diluted to 3 nM final) (Catalog #AL118 Perkin Elmer; Waltham, Mass.) was added in each well. Dilution of the acceptor beads and anti-Histone H3 was done in 1× Histone Detection buffer (Catalog #AL009F3 Perkin Elmer; Waltham, Mass.) which was produced by diluting the 10× stock provided. The plate was sealed with an aluminum plate sealer and incubated at 23° C. for 60 min. Next, 10 μL 5× solution of Streptavidin Donor beads were added (Catalog #6760002 Perkin Elmer; Waltham, Mass.) (20 μg/mL final in 1× Histone Detection Buffer), =plate was sealed with Aluminum plate sealer and incubated at 23° C. for 30 min. The plates were then read using an EnVision-Alpha Reader (model #2104 Perkin Elmer; Waltham, Mass.). […]

The target in assay [2] is PRC2 containing wt EZH2 (Homo sapiens (Human), UniProt Q15910). The assay can be described thus: EZH2 residence time assay (100-fold dilution of enzyme-inhibitor complex). Format: biochemical. The protocol: EZH2 residence time assay: Compound residence times were assessed by monitoring the recovery of enzyme activity following a 100-fold dilution of pre-formed enzyme-inhibitor complex (dilution reaction), and comparing it to the activity of an undiluted control with the same final concentrations of all reagents (control reaction). Enzyme activity was measured by incorporation of ^3H-SAM into a biotinylated H3 peptide. For the dilution reaction, 20 nM PRC2 containing wt EZH2 (pentameric complex prepared in-house) was pre-incubated with 1 μM activating peptide (H2N-RKQLATKAAR(Kme3)SAPATGGVKKP-amide) and compound at 600 times its Ki for 2 h in 40 μL of buffer (50 mM Tris pH 8.5, 4 mM DTT, 1 mM MgCl2, 0.07 mM Brij-35, and 0.1 mg/mL BSA), then diluted 100-fold and the reaction initiated by transferring 1.4 μL to a 138.6 μL volume of buffer containing 1 μM activating peptide, 5.05 μM substrate peptide (H2N-[…]-NTPEGbiot), 1.01 μM SAM, and 1.01 μM ^3H-SAM. […] Reactions were quenched at various time points spanning up to 10 hours, by transferring 8μL aliquots from the reaction vessel to a plate containing 8μL per well of STOP solution (50 mM Tris pH 8.5, 200 mM EDTA, 2 mM SAH). After the last time point, 12 μL of the quenched solutions were transferred to a streptavidin coated FlashPlate (PerkinElmer) containing 40 μL per well of STOP solution, incubated 1-8 h, washed, and read in a TopCount plate reader (PerkinElmer).
A custom script was used to fit control reaction progress data to a straight line and dilution reaction progress data:
[formula] Where y is the product formed, t is the reaction time, vi is the initial velocity, vs is the steady state velocity, and kobs is the rate constant for the transition from the initial velocity phase of the curve to the steady state velocity phase of the curve. In fitting the dilution reaction progress data, vs was constrained to the slope of the line fitted to the control reaction progress data. The fitted value of kobs was then transformed into residence time:
[formula] Where τ is residence time, Ki is the inhibition constant, [EI] is the calculated equilibrium concentration of enzyme-inhibitor complex, [E] is the calculated equilibrium concentration of free enzyme, and [I] is the calculated equilibrium concentration of free inhibitor.

[3] abbreviates: recovery of enzyme activity after 100-fold dilution, read-out: EZH2 residence time (converted).

Where two headings read alike, the source gives them in different places. Some results are limits rather than exact numbers.

PRC2 containing wt EZH2, sequence (Q15910 whole entry): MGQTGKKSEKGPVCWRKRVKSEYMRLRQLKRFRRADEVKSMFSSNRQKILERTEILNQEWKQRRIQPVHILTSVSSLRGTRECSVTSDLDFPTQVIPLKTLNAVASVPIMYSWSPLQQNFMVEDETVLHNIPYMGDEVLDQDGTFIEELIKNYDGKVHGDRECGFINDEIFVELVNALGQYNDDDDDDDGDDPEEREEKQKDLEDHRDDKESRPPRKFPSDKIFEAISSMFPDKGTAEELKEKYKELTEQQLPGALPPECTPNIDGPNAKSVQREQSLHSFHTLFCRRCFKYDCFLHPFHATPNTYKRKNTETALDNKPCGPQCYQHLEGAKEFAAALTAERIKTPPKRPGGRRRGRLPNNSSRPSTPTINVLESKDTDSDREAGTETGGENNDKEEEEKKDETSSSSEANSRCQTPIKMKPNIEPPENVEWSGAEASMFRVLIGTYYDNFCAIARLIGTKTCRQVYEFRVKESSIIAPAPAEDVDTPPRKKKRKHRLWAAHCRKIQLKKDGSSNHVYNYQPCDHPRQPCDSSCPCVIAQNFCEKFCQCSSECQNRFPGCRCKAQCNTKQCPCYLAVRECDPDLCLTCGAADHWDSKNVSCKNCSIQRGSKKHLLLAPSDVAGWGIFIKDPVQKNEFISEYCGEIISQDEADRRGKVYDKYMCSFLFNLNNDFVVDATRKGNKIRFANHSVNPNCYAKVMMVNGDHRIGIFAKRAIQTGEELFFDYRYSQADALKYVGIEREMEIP
PRC2 containing wt EZH2, sequence (O75530 whole entry partner): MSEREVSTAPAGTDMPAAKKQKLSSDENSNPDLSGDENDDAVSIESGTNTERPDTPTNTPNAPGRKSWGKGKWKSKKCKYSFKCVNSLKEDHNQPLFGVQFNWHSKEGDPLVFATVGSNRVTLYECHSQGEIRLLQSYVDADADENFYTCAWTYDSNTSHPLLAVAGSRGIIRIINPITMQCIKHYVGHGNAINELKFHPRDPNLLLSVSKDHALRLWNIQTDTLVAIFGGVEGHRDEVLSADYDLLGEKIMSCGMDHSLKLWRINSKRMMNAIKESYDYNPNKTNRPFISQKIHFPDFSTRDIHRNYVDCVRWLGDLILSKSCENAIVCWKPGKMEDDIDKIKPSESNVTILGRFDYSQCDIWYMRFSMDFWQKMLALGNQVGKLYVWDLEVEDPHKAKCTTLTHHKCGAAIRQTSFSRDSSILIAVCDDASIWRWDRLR
PRC2 containing wt EZH2, sequence (Q15022 whole entry partner): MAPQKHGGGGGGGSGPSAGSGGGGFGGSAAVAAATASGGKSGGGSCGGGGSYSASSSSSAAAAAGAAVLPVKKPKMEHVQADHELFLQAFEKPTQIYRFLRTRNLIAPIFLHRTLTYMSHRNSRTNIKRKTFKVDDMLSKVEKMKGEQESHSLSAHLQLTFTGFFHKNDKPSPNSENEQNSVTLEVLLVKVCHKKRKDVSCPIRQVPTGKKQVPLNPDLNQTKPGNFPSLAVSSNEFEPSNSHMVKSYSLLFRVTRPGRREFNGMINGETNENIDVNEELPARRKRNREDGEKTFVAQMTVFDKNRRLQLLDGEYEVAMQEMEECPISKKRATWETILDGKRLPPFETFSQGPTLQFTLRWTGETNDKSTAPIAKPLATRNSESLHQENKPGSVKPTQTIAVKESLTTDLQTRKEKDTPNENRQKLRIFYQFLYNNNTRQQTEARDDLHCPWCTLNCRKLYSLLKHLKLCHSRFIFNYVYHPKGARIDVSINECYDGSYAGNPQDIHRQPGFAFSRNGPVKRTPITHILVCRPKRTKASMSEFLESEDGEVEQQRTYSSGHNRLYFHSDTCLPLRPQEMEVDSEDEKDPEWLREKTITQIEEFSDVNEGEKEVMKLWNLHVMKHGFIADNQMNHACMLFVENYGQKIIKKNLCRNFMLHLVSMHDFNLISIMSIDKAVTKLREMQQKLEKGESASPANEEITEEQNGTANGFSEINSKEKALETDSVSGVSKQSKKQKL
PRC2 containing wt EZH2, sequence (Q09028 whole entry partner): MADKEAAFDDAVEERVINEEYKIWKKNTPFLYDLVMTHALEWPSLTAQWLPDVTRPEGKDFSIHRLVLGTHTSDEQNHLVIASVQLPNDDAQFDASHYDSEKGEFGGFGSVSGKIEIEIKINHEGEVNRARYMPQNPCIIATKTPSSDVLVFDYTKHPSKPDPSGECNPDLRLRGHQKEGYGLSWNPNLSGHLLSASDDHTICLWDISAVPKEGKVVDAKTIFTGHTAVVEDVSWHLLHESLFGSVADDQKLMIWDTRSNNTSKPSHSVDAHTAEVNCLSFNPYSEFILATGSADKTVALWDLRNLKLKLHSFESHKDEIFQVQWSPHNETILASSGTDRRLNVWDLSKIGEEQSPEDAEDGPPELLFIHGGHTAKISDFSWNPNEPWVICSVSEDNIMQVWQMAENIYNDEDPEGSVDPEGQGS
PRC2 containing wt EZH2, sequence (Q6ZN18 whole entry partner): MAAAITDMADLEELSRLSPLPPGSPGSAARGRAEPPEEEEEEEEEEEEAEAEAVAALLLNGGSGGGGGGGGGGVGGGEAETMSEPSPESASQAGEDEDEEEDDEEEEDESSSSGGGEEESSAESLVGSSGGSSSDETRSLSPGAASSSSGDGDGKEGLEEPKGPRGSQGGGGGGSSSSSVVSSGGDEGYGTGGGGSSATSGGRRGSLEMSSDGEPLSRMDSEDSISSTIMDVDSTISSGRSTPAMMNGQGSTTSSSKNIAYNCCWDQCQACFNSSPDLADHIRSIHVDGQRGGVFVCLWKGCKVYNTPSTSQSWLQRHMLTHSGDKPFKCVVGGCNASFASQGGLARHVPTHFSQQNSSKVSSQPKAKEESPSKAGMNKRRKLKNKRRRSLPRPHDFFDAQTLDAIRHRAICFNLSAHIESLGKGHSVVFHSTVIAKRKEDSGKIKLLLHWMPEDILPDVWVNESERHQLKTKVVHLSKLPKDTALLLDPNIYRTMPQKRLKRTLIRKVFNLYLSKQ

The compound `CSc1cc(C)[nH]c(=O)c1CNC(=O)c1cc(Cl)c2c(c1C)OC(C)(C1CCC(N3CC(OC(F)F)C3)CC1)O2` (single isomer, unassigned) [Example 1, 7-chloro-2-(4-(3-(difluoromethoxy)azetidin-1-yl)cyclohexyl)-2,4-dimethyl-N-((6-methyl-4-(methylthio)-2-oxo-1,2-dihydropyridin-3-yl)methyl)benzo[d][1,3]dioxole-5-carboxamide] showed an EC50 in assay [1] of 0.52 nM. Also, the residence time in assay [2] (read-out: EZH2 residence time) is above 6000 min.

The compound `Cc1cc(Cl)c(CNC(=O)c2cc(Cl)c3c(c2C)OC(C)(C2CCC(N4CC(OC5CC5)C4)CC2)O3)c(=O)[nH]1` (single isomer, unassigned) [Example 8, 7-chloro-N-((4-chloro-6-methyl-2-oxo-1,2-dihydropyridin-3-yl)methyl)-2-(4-(3-cyclopropoxyazetidin-1-yl)cyclohexyl)-2,4-dimethylbenzo[d][1,3]dioxole-5-carboxamide] yielded an EC50 in assay [1] of 0.52 nM. Also, the residence time in assay [2] (setting [3]) is above 6000 min.

The compound `CSc1cc(C)[nH]c(=O)c1CNC(=O)c1cc(Cl)c2c(c1C)OC(C)(C1CCC(N3CC(OC4CC4)C3)CC1)O2` (single isomer, unassigned) [Example 9] displayed an EC50 in assay [1] of 0.61 nM. The residence time in assay [2] (setting [3]) was above 6000 min.

As for `CSc1nc(C)[nH]c(=O)c1CNC(=O)c1cc(Cl)c2c(c1C)OC(C)(C1CCC(N3CC(OC(F)F)C3)CC1)O2` (single isomer, unassigned) [Example 10], the EC50 in assay [1] stood at 1.9 nM. Besides, the residence time in assay [2] (setting [3]) is 2220 min.

In turn, `CSc1cc(C)[nH]c(=O)c1CNC(=O)c1cc(Cl)c2c(c1C)OC(C)(C1CCC(N3CC(F)C3)CC1)O2` (single isomer, unassigned) [Example 12] gave an EC50 in assay [1] of 0.59 nM. Besides, the residence time in assay [2] (setting [3]) was above 6000 min.

For `Cc1cc(Cl)c(CNC(=O)c2cc(Cl)c3c(c2C)OC(C)(C2CCC(N4CC(OC(F)F)C4)CC2)O3)c(=O)[nH]1` (single isomer, unassigned) [Example 13], the midpoint of the response in assay [1], the EC50, lay at 0.81 nM. Moreover, the residence time in assay [2] (setting [3]) was 2880 min.

The compound `COC1CN(C2CCC(C3(C)Oc4c(Cl)cc(C(=O)NCc5c(SC)cc(C)[nH]c5=O)c(C)c4O3)CC2)C1` (single isomer, unassigned) [Example 17, 7-chloro-2-(4-(3-methoxyazetidin-1-yl)cyclohexyl)-2,4-dimethyl-N-((6-methyl-4-(methylthio)-2-oxo-1,2-dihydropyridin-3-yl)methyl)benzo[d][1,3]dioxole-5-carboxamide] had a concentration for a half-maximal effect (EC50) in assay [1] of 0.33 nM. In addition, in assay [2] (setting [3]), the residence time was above 6000 min.

One may read the EC50 as the concentration needed to bring the measured effect to its halfway point. Read a high EC50 as weaker potency.
